Test results reported in patent publication US12583852B2, “Heterocycle derivative” (JW PHARMACEUTICAL CORPORATION, priority 2018, dated 2026).

System: human dermal papilla cells
Assay: Promotion of proliferation of human dermal papilla cells (CellTiter-Glo Luminescent cell viability assay)
Type: cell-based
Conditions: human dermal papilla cells (ScienCell, 2499); drug 0 to 30 μM; 48 hours; CellTiter-Glo luminescence; compared to DMSO-treated control group
Protocol: The effect of promoting cell proliferation by the drug was analyzed using human dermal papilla cells (ScienCell, 2499). Human dermal papilla cells cultured using Mesenchymal Stem Cell Medium (ScienCell, 7501) medium were seeded at a density of 3×10^3 cells/well and in a volume of 100 μl in a 96-well plate, incubated overnight at 37° C. and 5% CO2, treated with the drug at different concentrations ranging from 0 to 30 μM in a volume of 100 μL, and incubated at 37° C. and 5% CO2 for 48 hours. CellTiter-Glo Luminescent cell viability assay was performed according to the manufacturer's protocol (Promega, G7573) to detect cell proliferation. Luminescence was measured using an Envision 2102 multilabeled reader (PerkinElmer) equipment, and the cell proliferation rate was analyzed by the activity of the drug-treated group compared to the DMSO-treated group (control group), which is a solvent of the drug.

| SMILES | Maximum DP cell proliferation (%) |
| --- | --- |
| Fc1cc2c(-c3ccccc3)n[nH]c2nc1Nc1cccc2c1CCC2 [Example 109, 5-fluoro-N-indan-4-yl-3-phenyl-1H-pyrazolo[3,4-b]pyridin-6-amine] | 3.6% |
| Nc1n[nH]c2nc(Nc3cccc4c3CCC4)ncc12 [Example 112, N6-(2,3-dihydro-1H-inden-4-yl)-1H-pyrazolo[3,4-d]pyrimidine-3,6-diamine] | 2% |
| Nc1n[nH]c2nc(Nc3cccc(C(F)F)c3F)ncc12 [Example 115, N6-(3-(difluoromethyl)-2-fluorophenyl)-1H-pyrazolo[3,4-d]pyrimidine-3,6-diamine] | 3.7% |
| Nc1n[nH]c2nc(Nc3cccc4c3CCC4)nc(Cl)c12 [Example 116, 4-chloro-N6-indan-4-yl-3a,4-didehydro-1H-pyrazolo[3,4-d]pyrimidine-3,6-diamine] | 5.9% |
| Nc1n[nH]c2nc(Nc3cccc(C(F)(F)F)c3F)ncc12 [Example 117, N6-[2-fluoro-3-(trifluoromethyl)phenyl]-1H-pyrazolo[3,4-d]pyrimidine-3,6-diamine] | 6.7% |
| Fc1cc2c(Br)n[nH]c2nc1Nc1c(Br)cc(Br)c2c1CCC2 [Example 119, 3-bromo-N-(5,7-dibromoindan-4-yl)-5-fluoro-1H-pyrazolo[3,4-b]pyridin-6-amine] | 1.3% |
| O/N=N\c1n[nH]c2nc(Nc3cccc4c3CCC4)c(F)cc12 [Example 122, (Z)-N-(2,3-dihydro-1H-inden-4-yl)-5-fluoro-3-(hydroxydiazenyl)-1H-pyrazolo[3,4-b]pyridin-6-amine] | 5.3% |
